Source: EP3800188A1, “SUBSTITUTED PYRAZOLOPYRIMIDINES AS IRAK4 INHIBITORS” (Bayer AG, priority 2019, dated 2021)

Key:
[1] = Metabolic stability in human liver microsomes; conditions: 1 µM compound; for CLblood, human microsomes: hepatic in vivo blood clearance calculated with well stirred liver model, '(stable)' given beside < 0.01; for Fmax, human microsomes: maximal oral bioavailability calculated with well stirred liver model, 0.5 mg/mL protein, '(stable)' given beside 100
human IRAK4 = target: T1, human IRAK4 (Homo sapiens, UniProt Q9NWZ3); assay: Human IRAK4 kinase activity inhibition assay (IRAK4 TR-FRET assay); type: biochemical; conditions: 1 mM ATP, GST-human IRAK4, average or median values
T1 construct: GST (N); made in house; host or cells: baculovirus-infected Hi5 (BTI-TN-5B1-4) insect cells
T1 sequence (Q9NWZ3 1-460): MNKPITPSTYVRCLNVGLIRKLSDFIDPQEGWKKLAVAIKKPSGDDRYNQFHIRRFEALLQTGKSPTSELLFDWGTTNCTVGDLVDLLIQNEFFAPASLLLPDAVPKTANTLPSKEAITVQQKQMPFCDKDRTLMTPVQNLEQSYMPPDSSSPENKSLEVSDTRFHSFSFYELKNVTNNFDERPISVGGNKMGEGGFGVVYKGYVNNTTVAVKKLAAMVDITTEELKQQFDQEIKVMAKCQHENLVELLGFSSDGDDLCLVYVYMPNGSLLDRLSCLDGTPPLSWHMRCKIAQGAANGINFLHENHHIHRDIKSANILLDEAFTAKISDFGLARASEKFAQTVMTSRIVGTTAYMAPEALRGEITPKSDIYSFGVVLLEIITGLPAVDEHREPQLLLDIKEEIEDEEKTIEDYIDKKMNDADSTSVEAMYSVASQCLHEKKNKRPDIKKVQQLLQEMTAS
How it was run: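 GST-IRAK4 from insect cells (about 0.2 nM, linear range) was preincubated 15 min with compound (11 concentrations, 20 µM–0.073 nM) in HEPES pH 7.5 with MgCl2 and DTT before kinase reaction on a biotinylated peptide. Phosphopeptide was detected by TR-FRET (Eu anti-mouse-IgG/anti-phosphoserine/streptavidin-XL665, 1 h at 22°C) as the 665/620 nm ratio, normalized to no-compound and no-enzyme controls.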

human PBMCs = assay: In vitro LPS-induced cytokine (TNF-α) production in human PBMCs; type: cell-based; conditions: PBMC, 0.1 µg/mL LPS, 24 hours, 30 min preincubation, read-out: activity (LPS-induced TNF-α secretion in human PBMCs)
Method: The effect of the compounds of the general formula (I) on induced cytokine production in human PBMCs was examined.
Cytokine production was induced here by LPS, a TLR4 ligand, which leads to activation of the IRAK4-mediated signal path.
The human PBMCs were obtained from anti-coagulated human whole blood. To this end, 15 mL of Ficoll-Paque (Biochrom, Cat. No. L6115) were initially charged in Leucosep tubes and 20 mL of human blood were added. After centrifugation of the blood at 800 g for 15 min at room temperature, the plasma including the platelets was removed and discarded. The PBMCs were transferred into centrifugation tubes and made up with PBS (phosphate-buffered saline) (Gibco, Cat. No. 14190). The cell suspension was centrifuged at room temperature at 250 g for 10 min and the supernatant was discarded. The PBMCs were resuspended in complete medium (RPMI 1640, without L-glutamine (PAA, Cat. No. E15-039), 10% FCS; 50 U/mL penicillin, 50 µg/mL streptomycin (PAA, Cat. No. P11-010) and 1% L-glutamine (Sigma, Cat. No. G7513)). The assay was also carried out in complete medium. The PBMCs were sown in 96-well plates at a cell density of 2.5x10^5 cells/well. The compounds according to the invention were subjected to serial dilution in a constant volume of 100% DMSO and used in the assay at 8 different concentrations in the range from 10 µM to 3 nM such that the final DMSO concentration was 0.4% DMSO. Prior to the actual stimulation, the cells were then preincubated therewith for 30 min. To induce cytokine secretion, the cells were stimulated with 0.1 µg/mL LPS (Sigma, Escherichia coli 0128:B12, Cat. No. L2887) for 24 hours. Cell viability was determined using the CellTiter-Glo luminescent assay (Promega, Cat. No. G7571 (G755/G756A)) in accordance with the manufacturer's instructions. The amount of secreted TNF-α in the cell culture supernatant was determined using the Human ProInflammatory 9-Plex Tissue Culture Kit (MSD, Cat. No. K15007B) in accordance with the instructions of the manufacturer. By way of example, Example Compounds II-2, I-40, I-56, I-61 have activity ≤ 500 nM.

[2] = Metabolic stability in dog liver microsomes; type: in vitro ADME; conditions: 1 µM compound; for CLblood, dog microsomes: hepatic in vivo blood clearance calculated with well stirred liver model, '(stable)' given beside < 0.01; for Fmax, dog microsomes: maximal oral bioavailability calculated with well stirred liver model, 0.5 mg/mL protein, '(stable)' given beside 100
Method: From the half-life the intrinsic clearances were calculated.

canine Irak4 = target: T2, canine Irak4 (Canis lupus familiaris, UniProt A0A8I3S726); assay: Canine Irak4 kinase assay (TR-FRET); type: biochemical; conditions: 1 mM ATP, His6-tagged canine Irak4, average or median values
T2 sequence (A0A8I3S726 2-459): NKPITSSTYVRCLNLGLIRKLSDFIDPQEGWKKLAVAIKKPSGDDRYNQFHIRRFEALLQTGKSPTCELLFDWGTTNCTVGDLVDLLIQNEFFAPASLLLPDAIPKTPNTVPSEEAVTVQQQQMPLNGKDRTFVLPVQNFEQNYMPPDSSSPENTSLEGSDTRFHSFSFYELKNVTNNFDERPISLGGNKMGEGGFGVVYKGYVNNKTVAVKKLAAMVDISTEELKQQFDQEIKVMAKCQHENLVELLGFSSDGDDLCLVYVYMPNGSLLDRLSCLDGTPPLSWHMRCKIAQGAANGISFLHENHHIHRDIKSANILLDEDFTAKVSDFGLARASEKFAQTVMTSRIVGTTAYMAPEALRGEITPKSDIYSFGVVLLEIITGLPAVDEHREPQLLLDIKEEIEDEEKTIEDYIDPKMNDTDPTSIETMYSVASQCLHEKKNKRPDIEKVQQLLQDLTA

| CLblood, human microsomes [1] | Fmax, human microsomes [1] | IC50 (human IRAK4) | CLblood, dog microsomes [2] | Fmax, dog microsomes [2] | IC50 (canine Irak4) | SMILES | IC50 (human PBMCs) |
| --- | --- | --- | --- | --- | --- | --- | --- |
| 1 mL/min/kg | 95% | 3.46 nM | 1 mL/min/kg | 97% |  | CS(=O)(=O)[C@H]1C[C@H](Nc2nc(N3CC(N4CCOCC4)C3)c3cnn(-c4cccc(C(F)(F)F)c4)c3n2)C1 [Example I-56, N-[trans-3-(methylsulfonyl)cyclobutyl]-4-[3-(morpholin-4-yl)azetidin-1-yl]-1-[3-(trifluoromethyl)phenyl]-1H-pyrazolo[3,4-d]pyrimidin-6-amine] | ≤ 500 nM |
| 5.33 mL/min/kg | 76% | 7.19 nM |  |  | 8.7 nM | CC(C)(O)C1CCN(c2nc(N[C@@H]3CNC(=O)C3)nc3c2cnn3-c2cccc(C(F)(F)F)c2)CC1 [Example I-2-1, (4S)-4-({4-[4-(2-hydroxypropan-2-yl)piperidin-1-yl]-1-[3-(trifluoromethyl)phenyl]-1H-pyrazolo[3,4-d]pyrimidin-6-yl}amino)pyrrolidin-2-one] |  |
| 1.2 mL/min/kg | 95% | 12 nM |  |  | 12.7 nM | CC(C)(O)C1CCN(c2nc(NC3CN(S(C)(=O)=O)C3)nc3c2cnn3-c2cccc(C(F)(F)F)c2)CC1 [Example I-14, 2-[1-(6-{[1-(methylsulfonyl)azetidin-3-yl]amino}-1-[3-(trifluoromethyl)phenyl]-1H-pyrazolo[3,4-d]pyrimidin-4-yl)piperidin-4-yl]propan-2-ol] |  |
| 0.67 mL/min/kg | 97% | 1.82 nM |  |  | 1.98 nM | CC(C)(O)C1CCN(c2nc(N[C@H]3C[C@](C)(N)C3)nc3c2cnn3-c2cccc(C(F)(F)F)c2)CC1 [Example I-57, 2-(1-{6-[(trans-3-amino-3-methylcyclobutyl)amino]-1-[3-(trifluoromethyl)phenyl]-1H-pyrazolo[3,4-d]pyrimidin-4-yl}piperidin-4-yl)propan-2-ol] |  |
| 5.17 mL/min/kg | 77% | 3.28 nM |  |  |  | CC1(O)CCN(C2CN(c3nc(N[C@H]4C[C@H](S(C)(=O)=O)C4)nc4c3cnn4-c3cccc(C(F)(F)F)c3)C2)CC1 [Example I-61, 4-methyl-1-[1-(6-{[trans-3-(methylsulfonyl)cyclobutyl]amino}-1-[3-(trifluoromethyl)-phenyl]-1H-pyrazolo[3,4-d]pyrimidin-4-yl)azetidin-3-yl]piperidin-4-ol] | ≤ 500 nM |
| 3 mL/min/kg | 86% | 8.06 nM |  |  | 6.52 nM | CC(C)(O)C1CCN(c2nc(N[C@@H]3CNC(=O)C3)nc3c2cnn3-c2cccc(OC(F)F)c2)CC1 [IV-1, (4S)-4-({1-[3-(difluoromethoxy)phenyl]-4-[4-(2-hydroxypropan-2-yl)piperidin-1-yl]-1H-pyrazolo[3,4-d]pyrimidin-6-yl}amino)pyrrolidin-2-one] |  |
| 2.83 mL/min/kg | 87% | 8.82 nM |  |  | 5.41 nM | O=S1(=O)CCC(Nc2nc(N3CC(N4CCOCC4)C3)c3cnn(-c4cccc(C(F)(F)F)c4)c3n2)CC1 [Example I-23, N-(1,1-dioxidotetrahydro-2H-thiopyran-4-yl)-4-[3-(morpholin-4-yl)azetidin-1-yl]-1-[3-(trifluoromethyl)phenyl]-1H-pyrazolo[3,4-d]pyrimidin-6-amine] |  |
| 2.5 mL/min/kg | 88% | 6.68 nM | 1.2 mL/min/kg | 97% |  | O=S1(=O)CCC(Nc2nc(N3CC(N4CCOCC4)C3)c3cnn(-c4cccc(C(F)F)c4)c3n2)CC1 [II-2, 1-[3-(difluoromethyl)phenyl]-N-(1,1-dioxidotetrahydro-2H-thiopyran-4-yl)-4-[3-(morpholin-4-yl)azetidin-1-yl]-1H-pyrazolo[3,4-d]pyrimidin-6-amine] | ≤ 500 nM |
| 8.33 mL/min/kg | 62% | 13.1 nM |  |  | 26.4 nM | CN1CC[C@H](Nc2nc(N3CCC(C(C)(C)O)CC3)c3cnn(-c4cccc(C(F)(F)F)c4)c3n2)C1 [Example I-13-1, 2-[1-(6-{[(3S)-1-methylpyrrolidin-3-yl]amino}-1-[3-(trifluoromethyl)phenyl]-1H-pyrazolo[3,4-d]pyrimidin-4-yl)piperidin-4-yl]propan-2-ol] |  |
| 1.2 mL/min/kg | 95% | 3.68 nM |  |  |  | C[C@H]1C[C@H](Nc2nc(N3CCC(C(C)(C)O)CC3)c3cnn(-c4cccc(C(F)(F)F)c4)c3n2)CN1 [Example I-40, 2-[1-(6-{[(3S,5S)-5-methylpyrrolidin-3-yl]amino}-1-[3-(trifluoromethyl)phenyl]-1H-pyrazolo[3,4-d]pyrimidin-4-yl)piperidin-4-yl]propan-2-ol] | ≤ 500 nM |
| 2.33 mL/min/kg | 89% | 8.27 nM |  |  | 8.54 nM | CC(C)(O)C1CCN(c2nc(NC3CCS(=O)(=O)C3)nc3c2cnn3-c2cccc(C(F)(F)F)c2)CC1 (single isomer, unassigned; (+)) [Example I-4-2, (+)-2-(1-{6-[(1,1-dioxidotetrahydrothiophen-3-yl)amino]-1-[3-(trifluoromethyl)phenyl]-1H-pyrazolo[3,4-d]pyrimidin-4-yl}piperidin-4-yl)propan-2-ol] |  |
| 1.5 mL/min/kg | 93% | 10.5 nM |  |  | 9.27 nM | CC(C)(O)C1CCN(c2nc(NC3CCS(=O)(=O)CC3)nc3c2cnn3-c2cccc(C(F)(F)F)c2)CC1 [Example I-5, 2-(1-{6-[(1,1-dioxidotetrahydro-2H-thiopyran-4-yl)amino]-1-[3-(trifluoromethyl)phenyl]-1H-pyrazolo[3,4-d]pyrimidin-4-yl)piperidin-4-yl)propan-2-ol] |  |
